Legend:
Assay in all cases: relative viability (nuclei count vs DMSO), 5 days (fraction); higher = more cells survive
A-427 = tested on: A-427
Outline: (§1)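 Medians of duplicate plates are given as relative viability. That measure is the nuclei count in treated wells divided by the count in vehicle wells. Counts were taken on 4× images of lung cancer cell lines in 1536-well plates, 5 days after pin-tool dosing the day after seeding with one drug alone or a fixed anchor-drug dose plus five library-drug doses (not always all listed) in √10 steps.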

ABC-1 = tested on: ABC-1
Outline: as §1

COR-L23 = tested on: COR-L23
Outline: as §1

EMC-BAC-2 = tested on: EMC-BAC-2
Outline: as §1

HARA = tested on: HARA
Outline: as §1

HCC-15 = tested on: HCC-15
Outline: as §1

HCC-366 = tested on: HCC-366
Outline: as §1

HCC-78 = tested on: HCC-78
Outline: as §1

LC-2-ad = tested on: LC-2-ad
Outline: as §1

LK-2 = tested on: LK-2
Outline: as §1

NCI-H1734 = tested on: NCI-H1734
Outline: as §1

NCI-H1793 = tested on: NCI-H1793
Outline: as §1

NCI-H1944 = tested on: NCI-H1944
Outline: as §1

NCI-H1993 = tested on: NCI-H1993
Outline: as §1

NCI-H2009 = tested on: NCI-H2009
Outline: as §1

NCI-H2023 = tested on: NCI-H2023
Outline: as §1

NCI-H2228 = tested on: NCI-H2228
Outline: as §1

NCI-H23 = tested on: NCI-H23
Outline: as §1

NCI-H2405 = tested on: NCI-H2405
Outline: as §1

NCI-H838 = tested on: NCI-H838
Outline: as §1

SK-LU-1 = tested on: SK-LU-1
Outline: as §1

UMC-11 = tested on: UMC-11
Outline: as §1

With `CC(C)Oc1cc(Nc2nc(N[C@@H](C)c3ccc(F)cn3)ncc2Cl)n[nH]1` [AZ23] + Cc1nc(NC(=O)N2CCC[C@H]2C(N)=O)sc1-c1ccnc(C(C)(C)C(F)(F)F)c1 [Alpelisib] (partner 2 µM) the relative viability (A-427; first compound 0.01 µM) was 1.13, the relative viability (A-427; first compound 0.03162 µM) was 1.1 and the relative viability (A-427; first compound 0.3162 µM) was 1.08. It also gave a relative viability (ABC-1; first compound 0.01 µM) of 0.717, a relative viability (ABC-1; first compound 0.03162 µM) of 1.23 and a relative viability (ABC-1; first compound 0.3162 µM) of 1.14. The relative viability (COR-L23; first compound 0.01 µM) was 0.815, the relative viability (COR-L23; first compound 0.03162 µM) was 0.921 and the relative viability (COR-L23; first compound 0.3162 µM) was 0.821. The relative viability (EMC-BAC-2; first compound 0.01 µM) was 0.897, the relative viability (EMC-BAC-2; first compound 0.03162 µM) was 0.791 and the relative viability (EMC-BAC-2; first compound 0.3162 µM) was 0.754. It also gave a relative viability (HARA; first compound 0.01 µM) of 1.18, a relative viability (HARA; first compound 0.03162 µM) of 0.847 and a relative viability (HARA; first compound 0.3162 µM) of 0.774. For the same compound, the relative viability (HCC-15; first compound 0.01 µM) was 1.13, the relative viability (HCC-15; first compound 0.03162 µM) was 0.857 and the relative viability (HCC-15; first compound 0.3162 µM) was 0.877. For the same compound, the relative viability (HCC-366; first compound 0.01 µM) was 0.391, the relative viability (HCC-366; first compound 0.03162 µM) was 0.517 and the relative viability (HCC-366; first compound 0.3162 µM) was 0.334. The relative viability (HCC-78; first compound 0.01 µM) was 0.348, the relative viability (HCC-78; first compound 0.03162 µM) was 0.286 and the relative viability (HCC-78; first compound 0.3162 µM) was 0.306. For the same compound, the relative viability (LC-2-ad; first compound 0.01 µM) was 1.01, the relative viability (LC-2-ad; first compound 0.03162 µM) was 0.895 and the relative viability (LC-2-ad; first compound 0.3162 µM) was 0.892. For the same compound, the relative viability (LK-2; first compound 0.03162 µM) was 1.26, the relative viability (LK-2; first compound 0.3162 µM) was 1.17 and the relative viability (NCI-H1734; first compound 0.01 µM) was 0.683. The relative viability (NCI-H1734; first compound 0.03162 µM) was 0.772, the relative viability (NCI-H1734; first compound 0.3162 µM) was 0.649 and the relative viability (NCI-H1793; first compound 0.01 µM) was 0.83. The relative viability (NCI-H1793; first compound 0.03162 µM) was 0.787, the relative viability (NCI-H1793; first compound 0.3162 µM) was 0.643 and the relative viability (NCI-H1944; first compound 0.01 µM) was 0.811. For the same compound, the relative viability (NCI-H1944; first compound 0.03162 µM) was 0.868, the relative viability (NCI-H1944; first compound 0.3162 µM) was 0.883 and the relative viability (NCI-H1993; first compound 0.01 µM) was 0.597. For the same compound, the relative viability (NCI-H1993; first compound 0.3162 µM) was 0.659, the relative viability (NCI-H2009; first compound 0.01 µM) was 1.13 and the relative viability (NCI-H2009; first compound 0.03162 µM) was 1.23. The relative viability (NCI-H2009; first compound 0.3162 µM) was 1.19, the relative viability (NCI-H2023; first compound 0.03162 µM) was 0.675 and the relative viability (NCI-H2023; first compound 0.3162 µM) was 0.623. It also gave a relative viability (NCI-H2228; first compound 0.01 µM) of 0.88, a relative viability (NCI-H2228; first compound 0.03162 µM) of 1.01 and a relative viability (NCI-H2228; first compound 0.3162 µM) of 0.67. It also gave a relative viability (NCI-H23; first compound 0.03162 µM) of 0.749, a relative viability (NCI-H23; first compound 0.3162 µM) of 0.573 and a relative viability (NCI-H2405; first compound 0.01 µM) of 0.708. The relative viability (NCI-H2405; first compound 0.03162 µM) was 0.768, the relative viability (NCI-H2405; first compound 0.3162 µM) was 0.754 and the relative viability (NCI-H838; first compound 0.01 µM) was 0.968. The relative viability (NCI-H838; first compound 0.03162 µM) was 1.25, the relative viability (NCI-H838; first compound 0.3162 µM) was 0.998 and the relative viability (SK-LU-1; first compound 0.01 µM) was 1.28. For the same compound, the relative viability (SK-LU-1; first compound 0.03162 µM) was 1.09, the relative viability (SK-LU-1; first compound 0.3162 µM) was 0.973 and the relative viability (UMC-11; first compound 0.01 µM) was 0.883. The relative viability (UMC-11; first compound 0.03162 µM) was 1.07 and the relative viability (UMC-11; first compound 0.3162 µM) was 0.943.
